Data: patent US20220370467A1, “USING OF A PPAR-DELTA AGONIST IN THE TREATMENT OF KIDNEY DISEASE” (Reneo Pharmaceuticals, Inc., priority 2019, published 2022)

Biological target: T1, hPPARγ (Homo sapiens, UniProt P37231)
T1 construct: expressed in transfected cells; host or cells: HEK293
T1 sequence (P37231 238-503 limits assumed): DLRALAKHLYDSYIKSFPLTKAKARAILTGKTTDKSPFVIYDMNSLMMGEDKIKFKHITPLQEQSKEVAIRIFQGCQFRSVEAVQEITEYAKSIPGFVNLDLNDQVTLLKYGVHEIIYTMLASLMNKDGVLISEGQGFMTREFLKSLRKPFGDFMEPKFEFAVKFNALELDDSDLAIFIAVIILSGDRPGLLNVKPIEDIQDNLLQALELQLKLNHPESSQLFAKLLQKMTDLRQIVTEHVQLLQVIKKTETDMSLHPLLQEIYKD
Test: in vitro assay on human PPAR subtypes (transactivation): hPPARγ
Assay type: cell-based
Description: “Activation” here is defined as the abovementioned downstream response, which in the case of PPAR's is gene transcription. Gene transcription may be measured indirectly as downstream production of proteins reflective of the activation of the particular PPAR subtype under study. Alternatively, an artificial reporter construct may be employed to study the activation of the individual PPAR's expressed in cells. The ligand binding domain of the particular receptor to be studied may be fused to the DNA binding domain of a transcription factor, which produces convenient laboratory readouts, such as the yeast GAL4 transcription factor DNA binding domain. The fusion protein may be transfected into a laboratory cell line along with a Gal4 enhancer, which effects the expression of the luciferase protein. When such a system is transfected into a laboratory cell line, binding of a receptor agonist to the fusion protein will result in light emission.
The PPAR transient transactivation assay may be based on transient transfection into human HEK293 cells of two plasmids encoding a chimeric test protein and a reporter protein respectively. […] The amount of luciferase protein is measured by light emission after addition of the appropriate substrate. […]

- agonist type on PPARγ: partial agonist
- activity on PPARγ in transactivation assays (in some cases): negligible activity
SMILES: Cc1cc(OC/C=C(/c2ccc(F)cc2)c2ccc(C#CCN3CCOCC3)cc2)ccc1OCC(=O)O [Compound 1, (E)-[4-[3-(4-Fluorophenyl)-3-[4-[3-(morpholin-4-yl)propynyl]phenyl]allyloxy]-2-methyl-phenoxy]acetic acid]
